In article PMC8820617, “Machine learning-driven identification of drugs inhibiting cytochrome P450 2C9” (PLoS Computational Biology, 2022):
pIC50: −log10 of the molar value. Entries after “also recorded” stand apart in the source; their conditions may differ. Where two headings read alike, the source gives them in different places.

Legend:
[1] = biological target: T1, CYP2C9 supersomes (Homo sapiens, UniProt P11712); test: Inhibition of CYP2C9 on recombinant supersomes (diclofenac 4-hydroxylation, LC/MS-MS); conditions: for pIC50: IC50 values determined with CYP2C9 supersomes, substrate diclofenac 5 μM, recombinant supersomes
T1 sequence (P11712 whole entry): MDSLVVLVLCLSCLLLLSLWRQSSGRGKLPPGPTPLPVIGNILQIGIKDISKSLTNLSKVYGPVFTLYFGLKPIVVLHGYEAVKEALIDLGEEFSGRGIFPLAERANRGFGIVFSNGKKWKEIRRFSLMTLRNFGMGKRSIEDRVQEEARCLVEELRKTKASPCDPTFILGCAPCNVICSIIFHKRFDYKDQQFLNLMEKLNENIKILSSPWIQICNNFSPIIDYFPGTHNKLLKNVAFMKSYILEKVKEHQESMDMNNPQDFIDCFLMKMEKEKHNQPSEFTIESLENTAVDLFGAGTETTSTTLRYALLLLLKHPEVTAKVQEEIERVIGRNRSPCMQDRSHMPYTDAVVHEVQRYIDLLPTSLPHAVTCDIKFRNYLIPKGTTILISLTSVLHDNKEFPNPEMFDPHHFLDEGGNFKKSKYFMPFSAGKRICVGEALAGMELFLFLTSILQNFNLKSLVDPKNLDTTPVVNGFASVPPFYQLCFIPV
Procedure: (§1) A CYP2C9-specific substrate (diclofenac) and recombinant supersomes were incubated with and without the study compounds (according to the protocol optimized by the Service Provider Admescope (Finland)). The concentrations of the studied compounds were 0.3, 1, 3, 10, 20, 30, 50, 60, 70, 90 and 100 μM. […] The enzymatic reactions were started after 6 min of preincubation by adding NADPH and terminated after 15 min by adding ice-cold acetonitrile. The supernatant was collected and centrifuged for analyses. The samples were analyzed by LC/MS-MS to determine the level of metabolites in the absence and presence of a candidate molecule. Spiked standard samples were not used, but quantification based on relative peak areas was performed (solvent control = 100%). The disappearance was evaluated as relative LC/MS peak areas, and the 0-min time points were marked as 100%. The disappearance rate was used to calculate the half-life and in vitro clearance. For details of the method, see S2 Text.
(§2) Details of analytical method for inhibition tests using CYP2C9 supersomes and calculation of IC50
(§3) Test compound concentrations: Test compound Test concentrations (µM)
(§4) Diclofenac at 5 µM for CYP2C9
(§5) Substrates and concentrations:
(§6) Instrumentation: Waters Acquity UPLC + Thermo TSQ Endura triple quadrupole MS
(§7) The IC50 value for the test compound was determined by fitting following equation to the data
(§8) A% = percentual activity remaining
(§9) Top = the upper plateau of percentual activity (constrained to 100)
(§10) Bottom = the lower plateau of percentual activity (constrained to 0)
(§11) [I] = inhibitor concentration
(§12) (1 picture or pasted object on this page, not shown here)

[2] = tested on: HepG2 cells expressing CYP2C9; test: Cytotoxicity (MTS assay) in HepG2 cells expressing CYP2C9; conditions: for Increased cytotoxicity in HepG2 cells expressing CYP2C9 (yes/no) / % living HepG2 cells expressing CYP2C9 after incubation with the min [c]: MTS assay; for Increased cytotoxicity in HepG2 cells expressing CYP2C9 (yes/no) / min [c]: minimal concentration that increases the cytotoxicity: threshold cell viability 80%; for Increased cytotoxicity in HepG2 cells expressing CYP2C9 (yes/no): compared with wild-type HepG2 cells; for min [c]: minimal concentration that increases the cytotoxicity: HepG2 cells expressing CYP2C9; for % living HepG2 cells expressing CYP2C9 after incubation with the min [c]: at min [c] of the compound
[3] = biological target: T2, CYP2C9 (Homo sapiens, UniProt P11712); test: Inhibition of CYP2C9 activity in HepG2 cells expressing CYP2C9 (P450-Glo CYP2C9 assay with Luciferin-H); conditions: for Inhibition of CYP2C9 activity in HepG2 cells (yes/no) / Dose-dependent inhibition (yes/no): HepG2 cells expressing CYP2C9; for Inhibition of CYP2C9 activity in HepG2 cells (yes/no): concentration range with cell viability > 80%; for Dose-dependent inhibition (yes/no): five-step dilution series 0.5 to 50 μM; for Any effect (inhibition of CYP2C9 activity and/or cytotoxicity on HepG2 cells expressing CYP2C9): over the range of concentrations used
T2 sequence (P11712 whole entry): as above

[4] = biological target: T2, CYP2C9; test: Inhibition of CYP2C9 on recombinant supersomes (diclofenac 4-hydroxylation, LC/MS-MS); conditions: human, recombinant CYP2C9 supersomes, probe diclofenac 5 μM (4-hydroxylation), IC50 values determined with CYP2C9 supersomes, substrate diclofenac 5 μM; recombinant supersomes
Procedure: as §1, §2, §3, §4, §5, §6, §7, §8, §9, §10, §11, §12

[5] = biological target: T1, CYP2C9 supersomes; test: Metabolism assays with recombinant CYP2C9 supersomes (UPLC/HR-MS); conditions: incubation with recombinant CYP2C9 supersomes
[6] = biological target: T2, CYP2C9
[7] = tested on: HepG2 cells expressing CYP2C9; conditions: human

Compound	pIC50 [1]	Dose-dependent inhibition (yes/no) [3]	Increased cytotoxicity in HepG2 cells expressing CYP2C9 (yes/no) [2]	Inhibition of CYP2C9 activity in HepG2 cells (yes/no) [3]	min [c]: minimal concentration that increases the cytotoxicity [2]	% living HepG2 cells expressing CYP2C9 after incubation with the min [c] [2]	further results
Bifeprofen	–	yes	yes	yes	75 µM	50%	–
Cc1nc(Nc2ncc(C(=O)Nc3c(C)cccc3Cl)s2)cc(N2CCN(CCO)CC2)n1 [Dasatinib]	–	yes	yes	yes	20 µM	45%	–
CC(=O)N1CCN(CCOc2ccc(C3CCN(C4=Nn5c(nnc5C(F)(F)F)CC4)CC3)cc2)CC1 [Azd3514]	–	no	yes	no	20 µM	60%	–
CC(C)Oc1ccc(S(=O)(=O)N2CCN(c3ccc(-c4ncco4)c(OCC(=O)O)c3)CC2)cc1 [Asapiprant]	4.34	yes	no	yes	–	–	–
COc1ccc(OC(=O)N(CC(=O)O)Cc2ccc(OCCc3nc(-c4ccccc4)oc3C)cc2)cc1 [Muraglitazar]	–	no	no	no	–	–	Any effect (inhibition of CYP2C9 activity and/or cytotoxicity on HepG2 cells expressing CYP2C9) [3]: did not show any effect
Ciltoprazine	–	no	yes	yes	75 µM	0%	–
Cc1ccccc1-n1c(/C=C/c2ccccn2)nc2ccccc2c1=O [Piriqualone]	4.96	yes	yes	yes	75 µM	0%	–
CCN1CCN(Cc2ccc(Nc3ncc(F)c(-c4cc(F)c5nc(C)n(C(C)C)c5c4)n3)nc2)CC1 [Abemaciclib]	< 4.00	no	yes	no	5 µM	30%	Inhibition effect on CYP2C9 (in words) ([1]; CYP2C9 supersomes): no direct inhibition; also recorded: No any inhibition effect; Metabolism by CYP2C9 (in words) [5]: metabolized by CYP2C9
O=c1[nH]c2ccccc2c(=O)n1CCCN1CCN(c2cccc(Cl)c2)CC1 [Cloperidone]	4.75	yes	yes	yes	100 µM	40%	Inhibition effect on CYP2C9 (in words) ([1]; CYP2C9 supersomes): strongly inhibit; Cytotoxicity after incubation with HepG2 cells expressing CYP2C9 (in words) [2]: increased cytotoxicity; Metabolism by CYP2C9 (in words) [5]: metabolized by CYP2C9
O=C(O[C@H]1CN2CCC1CC2)N(Cc1cc(F)c(F)c(F)c1)c1cccc(F)c1 [Tarafenacin]	< 4.00	–	–	–	–	–	Inhibition effect on CYP2C9 (in words) ([1]; recombinant enzyme): weak inhibition effect; Dose-dependent inhibition (yes/no) [6]: no; Inhibition of CYP2C9 activity in HepG2 cells (yes/no) [6]: yes; % living HepG2 cells expressing CYP2C9 after incubation with the min [c] [7]: 0%; min [c]: minimal concentration that increases the cytotoxicity [7]: 50 µM

Now from value to compound, other results behind:

pIC50 [1]	Dose-dependent inhibition (yes/no) [3]	Compound	Increased cytotoxicity in HepG2 cells expressing CYP2C9 (yes/no) [2]	Inhibition of CYP2C9 activity in HepG2 cells (yes/no) [3]	min [c]: minimal concentration that increases the cytotoxicity [2]	% living HepG2 cells expressing CYP2C9 after incubation with the min [c] [2]	further results
4.28	yes	C[C@H](Nc1ncnc2[nH]cnc12)c1cc2cccc(Cl)c2c(=O)n1-c1ccccc1 [Duvelisib]	no	yes	–	–	–
–	no	CN(c1ncccc1CNc1nc(Nc2ccc3c(c2)CC(=O)N3)ncc1C(F)(F)F)S(C)(=O)=O [Pf-562271]	yes	yes	10 µM	65%	–
–	no	CN(c1nccc(=O)[nH]1)C1CCN(c2nc3ccccc3n2Cc2ccc(F)cc2)CC1 [Mizolastine]	yes	no	50 µM	60%	–
> 4.74	yes	Clc1ccc(Nc2nnc(Cc3ccncc3)c3ccccc23)cc1 [Vatalanib]	yes	yes	20 µM	50%	IC50 at 15 min [4]: < 0.3 µM; Inhibition effect on CYP2C9 (in words) ([1]; CYP2C9 supersomes): strongly inhibit; Metabolism by CYP2C9 (in words) [5]: metabolized by CYP2C9
4.93	yes	CCCSc1nc(N[C@@H]2C[C@H]2c2ccc(F)c(F)c2)c2nnn([C@@H]3C[C@H](OCCO)[C@@H](O)[C@H]3O)c2n1 [Ticagrelor]	no	yes	–	–	–
–	no	CC(C)(C)C(=O)Oc1ccc(S(=O)(=O)Nc2ccccc2C(=O)NCC(=O)O)cc1 [Sivelestat]	no	no	–	–	Any effect (inhibition of CYP2C9 activity and/or cytotoxicity on HepG2 cells expressing CYP2C9) [3]: did not show any effect
4.40	yes	O=C1NCCN1CCN1CCC(c2cn(-c3ccc(F)cc3)c3ccc(Cl)cc23)CC1 [Sertindole]	yes	yes	10 µM	60%	–
